From ChEMBL document CHEMBL5465560, “Selectivity Literature for EUbOPEN Chemogenomic Library” (2024) come the findings set out here.

Test [1] concerns the target T1, Ephrin type-A receptor 3 (Homo sapiens) (UniProt P29320).
T1 sequence (whole entry): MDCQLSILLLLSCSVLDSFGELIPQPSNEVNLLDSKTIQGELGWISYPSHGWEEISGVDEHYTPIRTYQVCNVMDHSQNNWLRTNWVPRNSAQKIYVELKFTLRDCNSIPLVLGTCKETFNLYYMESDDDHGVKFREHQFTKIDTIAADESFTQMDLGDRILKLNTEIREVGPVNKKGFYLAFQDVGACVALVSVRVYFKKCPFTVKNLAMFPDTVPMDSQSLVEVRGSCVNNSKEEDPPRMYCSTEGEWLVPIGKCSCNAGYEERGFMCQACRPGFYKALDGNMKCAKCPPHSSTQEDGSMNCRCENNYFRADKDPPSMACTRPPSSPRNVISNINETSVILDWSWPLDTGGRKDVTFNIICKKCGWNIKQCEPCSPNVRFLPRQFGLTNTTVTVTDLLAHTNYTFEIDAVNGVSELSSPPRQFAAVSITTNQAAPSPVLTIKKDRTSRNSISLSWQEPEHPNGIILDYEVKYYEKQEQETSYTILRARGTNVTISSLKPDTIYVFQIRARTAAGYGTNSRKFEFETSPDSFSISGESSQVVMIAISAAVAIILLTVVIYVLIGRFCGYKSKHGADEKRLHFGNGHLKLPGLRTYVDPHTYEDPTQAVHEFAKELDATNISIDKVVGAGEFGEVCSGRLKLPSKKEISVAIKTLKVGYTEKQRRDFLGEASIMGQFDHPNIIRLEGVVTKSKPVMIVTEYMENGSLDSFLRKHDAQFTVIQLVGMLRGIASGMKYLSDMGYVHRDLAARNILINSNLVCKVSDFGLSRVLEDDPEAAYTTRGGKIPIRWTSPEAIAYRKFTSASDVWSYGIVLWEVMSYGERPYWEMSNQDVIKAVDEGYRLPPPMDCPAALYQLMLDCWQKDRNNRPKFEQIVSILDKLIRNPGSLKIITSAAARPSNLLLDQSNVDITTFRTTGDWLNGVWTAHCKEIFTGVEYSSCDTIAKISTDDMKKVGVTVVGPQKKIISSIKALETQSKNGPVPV
Kind of test: Selectivity interaction (Upstate Kinase Profiler service (Millipore)) EUB0000056c EPHA3. Particulars: at 1 µM.

Test [2] deals with T2, Ephrin type-A receptor 8 (Homo sapiens) (UniProt P29322).
T2 sequence (whole entry): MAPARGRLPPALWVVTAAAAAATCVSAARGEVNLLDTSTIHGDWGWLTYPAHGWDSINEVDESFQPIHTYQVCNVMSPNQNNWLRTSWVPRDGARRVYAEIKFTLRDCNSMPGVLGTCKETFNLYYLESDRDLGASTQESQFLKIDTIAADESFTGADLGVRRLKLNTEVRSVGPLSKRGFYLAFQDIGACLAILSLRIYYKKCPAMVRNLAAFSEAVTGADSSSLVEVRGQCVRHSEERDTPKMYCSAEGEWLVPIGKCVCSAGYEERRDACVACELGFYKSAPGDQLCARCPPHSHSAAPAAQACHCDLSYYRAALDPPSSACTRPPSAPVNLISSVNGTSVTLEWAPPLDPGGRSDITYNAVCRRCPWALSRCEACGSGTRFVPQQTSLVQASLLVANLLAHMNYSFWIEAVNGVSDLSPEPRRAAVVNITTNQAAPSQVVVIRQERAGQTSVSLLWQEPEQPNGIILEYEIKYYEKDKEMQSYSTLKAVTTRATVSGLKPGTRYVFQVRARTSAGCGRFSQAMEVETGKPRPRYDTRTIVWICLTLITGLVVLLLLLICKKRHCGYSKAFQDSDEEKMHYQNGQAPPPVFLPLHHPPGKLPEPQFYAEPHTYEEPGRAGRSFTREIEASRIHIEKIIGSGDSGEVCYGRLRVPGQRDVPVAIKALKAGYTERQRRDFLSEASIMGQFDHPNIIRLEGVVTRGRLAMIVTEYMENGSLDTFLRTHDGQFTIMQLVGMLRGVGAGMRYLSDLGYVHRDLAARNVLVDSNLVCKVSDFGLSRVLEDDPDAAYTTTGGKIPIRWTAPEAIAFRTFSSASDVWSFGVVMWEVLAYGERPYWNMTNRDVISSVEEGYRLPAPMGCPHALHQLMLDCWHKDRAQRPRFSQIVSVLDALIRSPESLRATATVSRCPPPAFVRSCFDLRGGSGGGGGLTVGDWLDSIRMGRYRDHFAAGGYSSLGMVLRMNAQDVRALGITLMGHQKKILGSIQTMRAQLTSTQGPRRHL
The experiment in a line: Selectivity interaction (KinomeScan (DiscoverX)) EUB0001079a EPHA8. Particulars: at 1 µM.

The target in test [3] is Progesterone receptor (Homo sapiens) (UniProt P06401). Kind of test: Selectivity interaction (Eurofins CEREP Diversity Profile (receptors and ion channels)) EUB0000279b PGR. Particulars: at 10 µM.
Progesterone receptor (Homo sapiens), sequence (P06401 whole entry): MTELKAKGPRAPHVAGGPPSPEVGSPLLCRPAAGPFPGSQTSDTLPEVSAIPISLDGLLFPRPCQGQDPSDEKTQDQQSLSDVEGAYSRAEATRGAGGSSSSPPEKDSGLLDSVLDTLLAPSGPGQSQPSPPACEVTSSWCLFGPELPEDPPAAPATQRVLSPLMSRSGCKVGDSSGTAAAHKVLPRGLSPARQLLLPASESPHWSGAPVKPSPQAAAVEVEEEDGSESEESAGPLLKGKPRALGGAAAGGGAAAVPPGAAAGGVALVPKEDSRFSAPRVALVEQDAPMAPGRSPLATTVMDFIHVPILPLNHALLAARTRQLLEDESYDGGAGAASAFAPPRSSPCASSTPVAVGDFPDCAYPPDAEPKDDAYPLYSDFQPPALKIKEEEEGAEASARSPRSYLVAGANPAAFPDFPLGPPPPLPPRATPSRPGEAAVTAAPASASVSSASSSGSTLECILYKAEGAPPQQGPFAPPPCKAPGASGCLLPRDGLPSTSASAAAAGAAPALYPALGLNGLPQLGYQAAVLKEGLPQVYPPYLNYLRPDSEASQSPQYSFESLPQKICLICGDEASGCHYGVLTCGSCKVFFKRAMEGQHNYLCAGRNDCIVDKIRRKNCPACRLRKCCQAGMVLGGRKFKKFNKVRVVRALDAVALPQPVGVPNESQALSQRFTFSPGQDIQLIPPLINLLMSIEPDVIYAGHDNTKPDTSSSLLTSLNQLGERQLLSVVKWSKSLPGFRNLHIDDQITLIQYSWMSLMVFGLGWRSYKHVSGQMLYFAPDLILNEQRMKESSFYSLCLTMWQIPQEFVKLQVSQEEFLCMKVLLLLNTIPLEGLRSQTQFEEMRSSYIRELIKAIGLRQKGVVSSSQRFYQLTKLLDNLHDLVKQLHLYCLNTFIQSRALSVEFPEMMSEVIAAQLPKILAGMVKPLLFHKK
Test [4] concerns the target T3, Inhibitor of nuclear factor kappa-B kinase subunit beta (Homo sapiens) (UniProt O14920).
T3 sequence (whole entry): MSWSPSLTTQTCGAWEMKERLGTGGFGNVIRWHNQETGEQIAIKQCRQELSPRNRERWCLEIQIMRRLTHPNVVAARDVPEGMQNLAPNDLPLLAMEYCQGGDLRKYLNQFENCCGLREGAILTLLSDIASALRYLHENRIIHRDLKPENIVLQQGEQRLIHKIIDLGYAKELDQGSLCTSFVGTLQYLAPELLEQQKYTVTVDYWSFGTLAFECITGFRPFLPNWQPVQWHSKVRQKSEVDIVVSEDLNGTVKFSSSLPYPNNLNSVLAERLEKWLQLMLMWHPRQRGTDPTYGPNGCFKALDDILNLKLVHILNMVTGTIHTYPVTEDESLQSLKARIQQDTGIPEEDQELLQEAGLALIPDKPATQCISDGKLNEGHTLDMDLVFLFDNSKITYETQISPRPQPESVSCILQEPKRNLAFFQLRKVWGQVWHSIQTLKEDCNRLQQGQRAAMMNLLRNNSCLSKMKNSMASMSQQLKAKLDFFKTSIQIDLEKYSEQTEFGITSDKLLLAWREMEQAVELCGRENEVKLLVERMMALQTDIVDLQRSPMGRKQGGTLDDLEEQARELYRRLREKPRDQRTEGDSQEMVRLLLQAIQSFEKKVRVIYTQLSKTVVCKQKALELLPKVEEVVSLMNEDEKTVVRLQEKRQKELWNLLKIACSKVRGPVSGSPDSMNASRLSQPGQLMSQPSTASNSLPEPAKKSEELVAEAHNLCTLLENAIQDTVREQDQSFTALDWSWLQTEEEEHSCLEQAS
Kind of test: Selectivity interaction (ActivX KiNativ screen (kinase selectivity in THP-1 cell lysates)) EUB0000639a IKBKB. It counts as subcellular. Particulars: lysate.

For `Cc1ccc(-c2ccc3c(ccc4sc5c(c43)NC[C@@H](C)NC5=O)n2)cn1`, the % of inhibition in test [1] is -1%.

Turning to `Nc1cnc(N2CCc3cc(S(=O)(=O)Nc4c(F)cc(Cl)cc4F)cc(N4CCCC4=O)c32)nc1` [TP-020n], the % of control in test [2] came to 100%.

Compound `CC(=O)c1cc(-c2ccccc2OCC2CC2)c2ncccn12` came in with a % of control in test [3] of 81%.

On to `CC[C@@H]1[C@H](F)C(=O)N[C@@H]1COc1nccc2cc(C(N)=O)c(OC)cc12` [ZIMLOVISERTIB], for which the % of inhibition is -9.1% in test [4] (at 0.01 µM); 4.5% in test [4] (at 0.04 µM); -13.8% in test [4] (at 0.2 µM); 4.1% in test [4] (at 1 µM); -6.8% in test [4] (at 5 µM).
